“And” between values parts separate entries of the source, which are not always exact repeats. Equal entries are not always repeated. Where two headings read alike, the source gives them in different places. Marks after values point to notes of the source that are not given here. One block for each compound: values may come before it.
Experiments:
[1] = design: method as in REACH dossier; conditions: aqueous; ref REACH dossier; cited from earlier work
[2] = design: method as in Perrin 1965, SRC, REACH, Perrin 1972, Hall 1957; conditions: ref Perrin 1965, SRC, REACH, Perrin 1972, Hall 1957, cited from earlier work; for pKa, experimental reference data: 25 °C; for pKa used (selected value): selected per amine type, weighted from simulated and experimental analogue data
[3] = test system: juvenile rainbow trout (Oncorhynchus mykiss); test: Bioconcentration (BCF) experiment based on OECD 305, aqueous exposure to surfactant mixtures; type: in vivo; conditions: for BCF (kU/kT) / uptake rate constant (kU) / measured total elimination rate constant (kT): whole fish; for uptake rate constant (kU): 14 d exposure, 28 d depuration
Procedure: (§1) Juvenile rainbow trout were purchased from EM lax in Västervik, Sweden, and held in the aquaria facility for one month prior to starting the experiment on August 28, 2018. Ethical approval for the experiments was obtained from Stockholm’s djurförsöksetiska nämnd (decision 9967–2017). The experiment was conducted in six 350 L fiberglass aquaria with a water renewal rate of 1.5 L min^–1 corresponding to a turnover time of […]. The water temperature and the air temperature in the aquaria room were 10 °C. The lighting was dim and programmed on a 12 h light/12 h dark cycle.
(§2) Three BCF experiments were conducted, one each for MIX1 and MIX2 at pH ∼7.6 (denoted MIX1 and MIX2 in the following), and one for MIX1 at pH ∼6.2 (MIX1pH). Each experiment consisted of a 14 d exposure phase and a 28 d depuration phase. There were also two control aquaria where unexposed fish were kept, one at pH 7.6 and one at pH 6.2. For the pH 6.2 aquaria, a 20% v:v formic acid solution was pumped into a premixing basin where it was mixed with the inflowing water before entering the aquarium. pH sensors monitored pH in the premixing basin and the aquarium. The pH for the MIX1 and MIX2 experiments was governed by the pH of the water supply. Water samples were collected at 8 time points during each experiment for the determination of pH and alkalinity. Water samples were collected daily during the exposure phase for determination of total organic carbon (TOC), which was measured with NDIR detection after acidification, purging and high-temperature catalytic combustion (Shimadzu TOC-L).
(§3) For the exposure phase, a methanol solution of the test chemical mixture was infused continuously at 4.0 μL min^–1 into the water inflow of the aquarium using a syringe pump. The target concentrations of the chemicals in water ranged from 2.5 to 100 μg L^–1 (Table 1). They were selected to be as low as possible to minimize the risk of toxic effects while still being high enough to enable collection of high-quality data, building on the results of the tissue distribution experiment.[32] The syringe pump was started in an aquarium containing no fish. After 16 h to allow the concentrations to stabilize, ∼80 rainbow trout were transferred to the aquarium. Over the following 14 d water samples were collected and fish were sacrificed according to the schedule in Table S5. The remaining fish were then transferred to a second aquarium that received water without chemical addition. Over the following 28 d further water samples were collected and fish were sacrificed (Table S5).
(§4) At each fish sampling, 4–6 fish were sacrificed. Fish were also sampled periodically from the control aquaria. Following stunning and severance of the spinal cord, the fish were placed in a polyethylene bag, weighed, and immediately frozen at −20 °C. The median fish weight at sacrifice was 10.94 g, with a 25th and 75th percentile of 8.43 and 13.58 g, respectively.
(§5) Three fish from each time point were prioritized for analysis based on proximity to the median fish weight. Each fish was semithawed, cut into 3–4 pieces, and homogenized with an Ultra-Turrax device. 150 mg of the homogenate was transferred to a preweighed 13 mL polypropylene tube, centrifuged to a pellet, and weighed. 50 μL of methanol was added and the prepared aliquot was frozen. For extraction internal standard solution (isotope labeled standards of Q10 (D21), Q14 (D29), and P16 (D33)), 3 mL of methanol and 3 steel balls (3.2 mm diameter) were added to the prepared aliquot. This mixture was mixed in a bullet blender for 1 min, and then placed in an ultrasound bath at 50 °C for 60 min. Following centrifugation, the supernatant was decanted and the extraction was repeated. The extracts were combined and a portion corresponding to 25–50 mg homogenate was cleaned up on a weak cationic exchange SPE column (WCX, 60 mg) as described elsewhere.[32] […]

[4] = ref Timmer and Droge (2017); cited from earlier work
[5] = Bioconcentration (BCF) experiment based on OECD 305, aqueous exposure to surfactant mixtures; type: in vivo, Oncorhynchus mykiss; conditions: whole fish, read-out: measured total elimination rate constant (kT) (converted)
Procedure: as §1, §2, §3, §4, §5

[6] = test system: gills of rainbow trout; test: Mechanistic one-box mass balance model of gill uptake and elimination; conditions: for predicted gill elimination rate constant eq 1 (k2): from measured kU and modeled αW, αB, DFW
Source text: To gain more mechanistic insight into the results, we formulated a simple one-box mass balance model of chemical bioconcentration in fish that considered diffusive uptake and elimination across the gills as well as biotransformation.[33] The flow of water across the gills and the flow of blood through the gills were modeled as perfusion limited resistances that constrain gill uptake and elimination. […] Consequently, these resistances are unknowns. Ion trapping effects caused by differences in pH between water at the gill surface and blood in the gills are considered, drawing on previous work on the uptake and elimination of ionizable organic chemicals across the gills of rainbow trout.[22],[23] Partitioning of the chemical from the dissolved phase into blood and into whole fish was calculated as the product of the membrane lipid–water distribution ratio (DMLW,T, including partitioning of both the neutral and the charged forms) and the fraction of membrane lipid in blood and whole fish. A detailed description of the model is provided in the SI (Text S3).
The contribution of the water perfusion and blood perfusion resistances were compared with the overall resistance for transport across the gills from water to blood (RW→B), which was calculated from the measured kU according to equation S4.3. […] For all of the other chemicals the blood resistance is insignificant compared to the overall resistance.
The rate constant for elimination across the gills, k2, can be defined as follows: [drawing 1] 1 where αB and αW are the neutral fractions of the chemical in the blood and in the water at the gill surface, respectively, and DFW is the fish-water distribution ratio of the chemical at the pH of blood (8.1) (see Text S3). Using the measured kU and the values of αW, αB, and DFW estimated for the model, k2 was calculated (Table 2).

SMILES: CCCCCCCCCCCCN [dodecan-1-amine]
- SURFACE TENSION [1]: 23.1 mN/m

SMILES: CCCCCCCCCCCCCC[N+](C)(C)CCCCCCCCCCCCCC.[Cl-] [N,N-dimethyl-N-tetradecyltetradecan-1-aminium chloride]
- SURFACE TENSION [1]: 28 mN/m

SMILES: CCCCCCCCCCCCCCCCCCN(C)C [dimethyl(octadecyl)amine]
- SURFACE TENSION [1]: 32.2 mN/m

SMILES: CCCCNC [N-methylbutylamine, reference compound]
- pKa, experimental reference data [2]: 10.9

- BCF (kU/kT) ([3]; pH 7.6 (MIX1, MIX2)): <0.2 ^c L kg^–1
- factor by which BCF is lower for the QAC than for the tertiary amine with the same chain length ([3]; pH 7.6, Q10 vs T10, Q14 vs T14): > 670
SMILES: CCCCCCCCCC[N+](C)(C)C [Q10, N,N,N-trimethyl-1-decylammonium]
- Log DMLW,C (membrane-water partition coefficient of the charged form) [4]: 3.34

- factor by which BCF is lower at pH 6.2 than at pH 7.6 ([3]; MIX1 vs MIX1pH): 34
- uptake rate constant (kU) ([3]; pH 6.2 (MIX1pH)): 0.36 L kg^–1 h^–1
- BCF (kU/kT) ([3]; pH 6.2 (MIX1pH)): 7.1 L kg^–1
- uptake rate constant (kU) ([3]; pH 7.6 (MIX1, MIX2), 10 °C): 2.0 L kg^–1 h^–1
- BCF (kU/kT) ([3]; pH 7.6 (MIX1, MIX2)): 250 L kg^–1
- k el ([5]; pH 6.2 (MIX1pH)): 1.42e-05 s⁻¹
- k el ([5]; pH 7.6 (MIX1, MIX2)): 2.25e-06 s⁻¹
- factor by which k2 was less than kT [6]: ~10
- pH dependency of k2 (factor between pH 7.6 and pH 6.2) ([6]; MIX1 vs MIX1pH): 2.5
- Uptake resistance ([6]; lower pH (6.2), value printed in Figure 3): 744 h m^-1
- k2/kT ([6]; pH 6.2 (MIX1pH)): 0.04
- predicted gill elimination rate constant eq 1 (k2) ([6]; pH 6.2 (MIX1pH)): 0.0022 h^–1
- k2/kT ([6]; pH 7.6 (MIX1, MIX2)): 0.11
- predicted gill elimination rate constant eq 1 (k2) ([6]; pH 7.6 (MIX1, MIX2)): 0.0009 h^–1
SMILES: CCCCCCCCCCCCN [P12, Dodecylamine]
- Log DMLW,C (membrane-water partition coefficient of the charged form) [4]: 5.58

SMILES: CCCCCCCCN [octylamine, reference compound]
- pKa, experimental reference data [2]: 10.7 and 10.6

- factor by which BCF is lower at pH 6.2 than at pH 7.6 ([3]; MIX1 vs MIX1pH): 22
- BCF (kU/kT) ([3]; pH 6.2 (MIX1pH)): 0.1 ^b L kg^–1
- BCF (kU/kT) ([3]; pH 7.6 (MIX1, MIX2)): 2.2 L kg^–1
SMILES: CCCCCCCCCN [P9, Nonylamine]
- Log DMLW,C (membrane-water partition coefficient of the charged form) [4]: 3.72
- pKa used (selected value) [2]: C9NH2 (10.6)

SMILES: CCCCCCN [hexylamine, reference compound]
- pKa, experimental reference data [2]: 10.64

SMILES: CCCN(C)C [N,N-dimethylpropylamine, reference compound]
- pKa, experimental reference data [2]: 9.99

- factor by which BCF is lower at pH 6.2 than at pH 7.6 ([3]; MIX1 vs MIX1pH): 17
- factor by which kT is greater at pH 6.2 than at pH 7.6 ([3]; MIX1 vs MIX1pH): 1.7
- factor by which kU is lower at pH 6.2 than at pH 7.6 ([3]; MIX1 vs MIX1pH): 10
- uptake rate constant (kU) ([3]; pH 6.2 (MIX1pH)): 1.02 L kg^–1 h^–1
- BCF (kU/kT) ([3]; pH 6.2 (MIX1pH)): 7.9 L kg^–1
- measured total elimination rate constant (kT) ([3]; pH 6.2 (MIX1pH)): 0.129 h^–1
- uptake rate constant (kU) ([3]; pH 7.6 (MIX1, MIX2), 10 °C): 9.9 L kg^–1 h^–1
- BCF (kU/kT) ([3]; pH 7.6 (MIX1, MIX2)): 134 L kg^–1
- measured total elimination rate constant (kT) ([3]; pH 7.6 (MIX1, MIX2)): 0.074 h^–1
- k2/kT ([6]; pH 6.2 (MIX1pH)): 4.1
- predicted gill elimination rate constant eq 1 (k2) ([6]; pH 6.2 (MIX1pH)): 0.53 h^–1
- factor by which k2 exceeded kT ([6]; pH 6.2 experiment): 4
- factor by which k2 exceeded kT ([6]; pH 7.6): ~5
- k2/kT ([6]; pH 7.6 (MIX1, MIX2)): 5.0
- predicted gill elimination rate constant eq 1 (k2) ([6]; pH 7.6 (MIX1, MIX2)): 0.37 h^–1
SMILES: CCCCCCCCCCN(C)C [T10, N,N-dimethyldecylamine]
- Log DMLW,C (membrane-water partition coefficient of the charged form) [4]: 3.65
- pKa used (selected value) [2]: C10N(CH3)2 (10.0)

From paper PMC8277129, “Bioconcentration of Several Series of Cationic Surfactants in Rainbow Trout” (Environmental Science & Technology, 2021)
